Source: PubChem BioAssay (NCI)
Values joined by “and” are separate entries in the source; they are usually repeats but may differ in a detail not shown here. Identical values can stand only once.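 Values below derive from 48-hour exposures of cells grown in 96-well plates, with endpoints linearly interpolated between the two concentrations bracketing the appropriate inhibition level. GI50 = concentration required for 50% inhibition of growth. TGI: total growth inhibition.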

Columns and labels:
Assay in all cases: NCI tumour cell line growth inhibition, 48 h
[1] = tested on: A498 renal
[2] = tested on: SF-268 CNS
[3] = tested on: KM20L2 colon
[4] = tested on: SR leukemia
[5] = tested on: HCC-2998 colon
[6] = tested on: DLD-1 colon
[7] = tested on: CCRF-CEM leukemia
[8] = tested on: NCI-H226 lung
[9] = tested on: MDA-MB-231 breast
[10] = tested on: HOP-92 NSCLC

Row | Structure (SMILES) | TGI [1] | TGI [2] | TGI [3] [µM] | TGI [4] | TGI [5] | TGI [6] [µM] | GI50 [7] [µM] | TGI [7] | GI50 [2] [µM] | TGI [8] | GI50 [4] | GI50 [5] [µM] | GI50 [9] [µM] | TGI [9] | GI50 [10] [µM] | TGI [10] | GI50 [8] [µM]
1 | O=C(c1ccccc1)[C@H]1Nc2ccc(Cl)cc2[C@H]2c3ccccc3O[C@H]21 | 24.5 µM | 33.9 µM | 28.3 | 66.6 µM | 31.5 µM | 30 | – | – | – | – | – | – | – | – | – | – | –
2 | COC1C(OC(=O)/C=C/C=C/C=C/C=C/C(=O)O)CCC2(CO2)C1C1(C)OC1CC=C(C)C (stereo not given) | > 100 µM | > 100 µM | > 100 | 67.6 µM | > 71.4 µM | > 100 | 0.386 | 78.1 µM | 0.388 | > 100 µM | 0.22 µM | 0.231 | 0.525 | 80.5 µM | 0.438 | > 76.1 µM | –
3 | CCN(CC)C(=O)c1cccc2c(OC)ccc(OC)c12 | > 100 µM | > 100 µM | > 100 | > 100 µM | > 100 µM | > 100 | – | > 100 µM | – | > 100 µM | – | – | – | – | – | – | –
4 | Cc1cc(C)c2c(c1)CSCc1cc(C)cc(C)c1-2 | 79.9 µM | > 100 µM | > 100 | 47.4 µM | > 100 µM | > 100 | – | 45.5 µM | – | > 100 µM | – | – | – | – | – | – | –
5 | CN(N=O)C(=O)NC(CCCCNC(=O)OCc1ccccc1)C(=O)OCc1ccccc1 (stereo not given) | > 100 µM | – | > 100 | 58.4 µM | > 100 µM | > 100 | – | 57.1 µM | – | > 100 µM | – | – | – | – | – | 54.2 µM | –
6 | Cc1cccc(-c2nc(=S)[nH][nH]2)c1 | > 100 µM | > 100 µM | > 100 | > 100 µM | > 100 µM | > 100 | – | > 100 µM | – | > 100 µM | – | – | – | – | – | > 100 µM | –
7 | CN(C)CCN1C(=O)c2cccc3cc(N)cc(c23)C1=O | 13.8 µM and 8.93 µM | 25.6 µM and 28.9 µM | 23.5 | > 40.8 µM and 11 µM | 22.1 µM and 12 µM | 27.7 | 3.45 | > 50.7 µM and 20 µM | 3.83 | 5.34 µM and 8.51 µM | 3.38 µM and 0.824 µM | 4.69 | 8.01 | 34.8 µM and 9.64 µM | 2.28 | 15.4 µM and 13.1 µM | 1.51
8 | Cc1cnoc1/N=C1\C=C(Nc2oncc2C)C(=O)c2ccccc21 | > 100 µM | > 100 µM | > 100 | > 100 µM | > 100 µM | > 100 | – | > 100 µM | – | > 100 µM | – | – | – | – | – | > 100 µM | –
9 | O=C(c1ccccc1)c1nc2ccc(Cl)cc2cc1C(Br)Br | 9.45 µM | 0.972 µM | 0.808 | 21.2 µM | 2.88 µM | 0.706 | – | 7.11 µM | – | 3.26 µM | – | – | – | – | – | – | –
10 | CC1=NC2(C(=O)O)C3(C(=O)O)N=C(C)OC3(C(F)(F)F)C2(C(F)(F)F)O1 (stereo not given) | > 100 µM | > 100 µM | > 100 | > 100 µM | > 100 µM | > 100 | – | > 100 µM | – | > 100 µM | – | – | – | – | – | > 100 µM | –
11 | CN(c1ccccc1)c1nc(=[N+](C)C)ss1 | > 100 µM | > 100 µM | > 100 | – | > 100 µM | > 100 | – | > 100 µM | – | > 100 µM | – | – | – | – | – | > 100 µM | –
12 | Cc1c2ccccc2c(=O)n2c(-c3ccccn3)cccc12 | > 100 µM | > 100 µM | > 100 | > 100 µM | > 100 µM | > 100 | – | > 100 µM | – | > 100 µM | – | – | – | – | – | > 100 µM | –
